Laboratory results published in US20260284086A1, “PHARMACEUTICAL COMPOSITION FOR TREATMENT OF INFLAMMATORY BOWEL DISEASE” (EA PHARMA CO., LTD., priority 2023, published 2026).
In brackets after ≈: the same amount, converted by molar mass. Like-named read-outs stand apart in the source and are kept apart here.

Experiments:
[1] = Repeated Administration Study 1: L-SEDDS 400 mg once daily for 10 days, plasma Compound (2); assay type: in vivo, human
Method: (§1) This clinical trial was a single-center, randomized, double-blind, placebo-controlled, single and multiple ascending dose study with the primary objective of evaluating the safety and tolerability of Compound (1) when orally administered to healthy adult males.
(§2) Screening tests were conducted within 28 to 3 days before administration of the investigational drug to confirm the eligibility of the subjects, and the subjects were hospitalized 2 days before administration. After hospitalization, tests were conducted from 2 days before administration to the day of administration to confirm that there were no problems with eligibility, and then Compound (1) or placebo was randomly assigned. The subjects in each cohort consisted of 8 people, of which 6 were assigned to Compound (1) and 2 were assigned to placebo, and they were administered the drug.
(§3) Day 8, when repeated administration was started, corresponds to administration day 1 (Day 1), and day 17 corresponds to administration day 10 (Day 10). […]
(§4) The plasma concentration of Compound (2) was measured using a validated measurement method. Specifically, plasma was separated from collected blood and processed, and then the plasma concentration was measured by an LC/MS/MS apparatus.
(§5) For twice-daily administration of C-SEDDS, blood was further collected at 13, 14, 14.5, and 16 hours later to quantify Compound (2).

[2] = Phase 1 single-dose administration study: plasma concentration of Compound (2) by LC/MS/MS after oral Compound (1); assay type: in vivo, human; conditions: Compound (1) 200 mg C-SEDDS single oral dose
[3] = PK Simulation Analysis 2 by Superposition Method (200 mg twice daily); parameters: species or system human; conditions: Day 10 of repeated administration
Method: The plasma concentration of Compound (2) on day 10 of repeated administration at 200 mg twice daily (every 12 hours) was predicted using the superposition method implemented in the Nonparametric Superposition (NPS) tool of the analysis software Phoenix WinNonlin, applying the results of once-daily administration at 200 mg (Certara L.P.) (FIG. 6).

[4] = PK Simulation Analysis 1 by Superposition Method (Phoenix WinNonlin NPS); parameters: species or system human; conditions: Compound (1) 50 mg; 2.5 times the 20 mg prediction
Description: The plasma concentration profile of Compound (2) on day 10 of repeated administration was predicted using the superposition method implemented in the Nonparametric Superposition (NPS) tool of the analysis software Phoenix WinNonlin, applying the single-dose results (Certara L.P.) (FIG. 4).

[5] = Repeated Administration Study 2: C-SEDDS 200 mg twice daily for 10 days, plasma Compound (2); assay type: in vivo, human
Method: as §1, §2, §3, §4, §5

[6] = molecular target: T1, MAdCAM-1 binding of lymphocytes (CD3-positive CD4-positive cells) (Homo sapiens, UniProt P13612+P26010); assay: Ex vivo integrin inhibitory activity: MAdCAM-1 binding inhibition rate of lymphocytes in plasma (flow cytometry); assay type: cell-based; conditions: for IC90: CD4 positive
T1 construct: endogenous in cells; host or cells: CD3-positive CD4-positive lymphocytes in heparinized whole blood of dosed healthy adult males
T1 sequence (P13612 34-1032): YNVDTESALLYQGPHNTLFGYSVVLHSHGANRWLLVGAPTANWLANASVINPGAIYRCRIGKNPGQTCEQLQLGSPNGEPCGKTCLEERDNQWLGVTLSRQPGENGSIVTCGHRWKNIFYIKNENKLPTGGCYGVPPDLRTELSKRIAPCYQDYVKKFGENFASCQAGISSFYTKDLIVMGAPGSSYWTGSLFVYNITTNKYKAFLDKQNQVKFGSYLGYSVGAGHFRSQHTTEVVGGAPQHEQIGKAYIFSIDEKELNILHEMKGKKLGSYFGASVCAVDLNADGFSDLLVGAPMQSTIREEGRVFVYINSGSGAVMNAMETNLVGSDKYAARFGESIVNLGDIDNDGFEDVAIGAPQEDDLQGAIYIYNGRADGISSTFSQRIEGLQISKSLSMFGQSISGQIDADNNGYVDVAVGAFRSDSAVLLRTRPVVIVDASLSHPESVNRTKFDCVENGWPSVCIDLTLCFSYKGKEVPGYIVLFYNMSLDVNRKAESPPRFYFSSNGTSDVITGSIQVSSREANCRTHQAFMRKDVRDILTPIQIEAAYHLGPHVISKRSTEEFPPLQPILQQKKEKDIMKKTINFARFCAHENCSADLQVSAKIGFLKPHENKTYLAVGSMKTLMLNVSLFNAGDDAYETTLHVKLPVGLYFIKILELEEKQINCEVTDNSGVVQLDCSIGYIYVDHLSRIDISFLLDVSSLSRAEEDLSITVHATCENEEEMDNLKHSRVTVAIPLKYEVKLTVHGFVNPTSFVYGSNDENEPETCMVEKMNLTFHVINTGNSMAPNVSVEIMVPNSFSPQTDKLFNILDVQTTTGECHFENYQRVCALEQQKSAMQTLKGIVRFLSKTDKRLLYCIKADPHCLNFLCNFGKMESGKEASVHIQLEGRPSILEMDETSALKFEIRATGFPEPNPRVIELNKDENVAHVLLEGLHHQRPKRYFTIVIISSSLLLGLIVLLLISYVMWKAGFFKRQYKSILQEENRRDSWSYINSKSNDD
T1 sequence (P26010 20-798): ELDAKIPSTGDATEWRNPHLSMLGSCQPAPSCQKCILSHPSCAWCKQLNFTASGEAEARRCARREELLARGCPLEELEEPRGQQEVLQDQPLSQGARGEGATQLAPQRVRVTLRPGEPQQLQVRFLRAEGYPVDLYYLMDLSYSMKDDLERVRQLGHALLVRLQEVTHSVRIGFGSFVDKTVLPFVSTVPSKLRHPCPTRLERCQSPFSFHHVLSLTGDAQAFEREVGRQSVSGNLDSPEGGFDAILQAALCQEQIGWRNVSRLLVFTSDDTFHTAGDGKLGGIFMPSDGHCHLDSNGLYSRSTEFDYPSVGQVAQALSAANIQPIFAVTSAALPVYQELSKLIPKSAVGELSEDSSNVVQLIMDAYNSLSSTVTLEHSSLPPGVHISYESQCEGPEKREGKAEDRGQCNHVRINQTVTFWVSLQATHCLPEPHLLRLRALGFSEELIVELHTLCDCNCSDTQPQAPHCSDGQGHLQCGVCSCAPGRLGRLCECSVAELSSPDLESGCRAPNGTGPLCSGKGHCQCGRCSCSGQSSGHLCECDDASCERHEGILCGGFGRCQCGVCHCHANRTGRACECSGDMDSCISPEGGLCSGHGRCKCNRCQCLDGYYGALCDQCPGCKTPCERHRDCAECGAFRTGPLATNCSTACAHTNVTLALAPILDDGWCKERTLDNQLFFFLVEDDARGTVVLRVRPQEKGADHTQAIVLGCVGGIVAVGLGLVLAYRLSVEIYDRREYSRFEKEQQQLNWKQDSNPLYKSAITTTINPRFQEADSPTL
Method: [MAdCAM-1 Binding Inhibition Rate (PD) of Lymphocytes in Plasma and IC90, IC50]
The MAdCAM-1 binding rate of lymphocytes in plasma was measured using a validated measurement method using the obtained blood samples, and the MAdCAM-1 binding inhibition rate of lymphocytes in plasma was calculated using Excel. Specifically, 5 μL of an 80 mM MnCl2 solution was added to 90 μL of heparinized blood and incubated at room temperature for 10 minutes. A volume of 5 μL of 200 μg/mL recombinant human MAdCAM-1/Fc (R&D Systems) was added to make a total volume of 100 μL, and the mixture was incubated at room temperature for 30 minutes. Subsequently, 1900 μL of BD Phosflow Lyse/Fix Buffer 5× (BD Biosciences) was added, and hemolysis and fixation were performed at 37° C. for 10 minutes. After centrifugation for 5 minutes, the supernatant was removed, and 2000 μL of RPMI-1640 medium supplemented with 10% inactivated fetal bovine serum (hereinafter referred to as medium) was added. After centrifugation for 5 minutes, the supernatant was removed and washed. After washing again with the medium, 50 μL of Brilliant Stain Buffer (BD Biosciences), 1.25 μL of MAdCAM-1 FITC (Hycult Biotech), 5 μL of CD4 PE (BD Biosciences), 2.5 μL of CD45RO APC (UCHL1) (BioLegend), 5 μL of CD3 BV421 (SK7) (BioLegend), and 2.5 μL of CD45 BV510 (HI30) (BioLegend) were added, and the mixture was incubated for 30 minutes. After washing with Stain Buffer (BSA) (BD Biosciences), the percentage of MAdCAM-1-positive cells among CD3-positive CD4-positive cells was measured using flow cytometry.
The percentage of MAdCAM-1-positive cells among CD3-positive CD4-positive cells was calculated by subtracting each measured value from the measured value when MAdCAM-1/Fc was not added as a control. The percentage of MAdCAM-1-positive cells among CD3-positive CD4-positive cells before administration of Compound (1) or placebo was set as 0% inhibition, and the MAdCAM-1 binding inhibition rate at each blood collection time point was obtained. Furthermore, the concentration IC50 that causes 50% binding inhibition and the concentration IC90 that causes 90% binding inhibition were calculated.
The MAdCAM-1 binding inhibition rate (PD) of lymphocytes in plasma was evaluated using collected blood, and the correlation with the plasma concentration (PK) of Compound (2) was plotted (FIG. 5).

- increase of plasma concentration (trough value) after 24 hours, Day 10 of repeated vs single-dose administration ([1]; Compound (1) 400 mg L-SEDDS once daily): more than threefold
- plasma concentration of Compound (2) ([2]; 0.5 h post-dose): Below quantitation limit
- plasma concentration of Compound (2) ([2]; 1 h post-dose): Below quantitation limit
- predicted trough value (200 mg twice daily) relative to measured trough value (400 mg once daily) [3]: about twice
- estimated Cmax on the 10th day of repeated administration [4]: 3.63 ng/mL
- increase of plasma concentration (trough value) 12 hours after the second dose on Day 10 of repeated vs single-dose administration ([5]; Compound (1) 200 mg C-SEDDS twice daily): about eightfold
- IC90 ([6]; ex vivo, blood of healthy adult males given Compound (1), read-out: IC90 (plasma concentration that causes 90% MAdCAM-1 binding inhibition)): 6.9 ng/mL (≈ 9.88 nM)
- IC90 ([6]; read-out: IC90): 6.9 ng/mL (≈ 9.88 nM)
- IC50 ([6]; ex vivo, blood of healthy adult males given Compound (1), read-out: IC50 (plasma concentration that causes 50% MAdCAM-1 binding inhibition) (converted)): 2.72 nM
- correlation of plasma concentration (PK) with MAdCAM-1 binding inhibition rate (PD) ([6]; ex vivo, collected blood, FIG. 5): correlated
SMILES: Cc1cc(=O)n(-c2ccc(C[C@H](NC(=O)c3cc(F)c(NS(=O)(=O)c4ccc(NC(=O)C(C)(C)C)cc4)cc3F)C(=O)O)cn2)c(=O)n1C [Compound (2)]
- trough concentration relative to IC90 ([1]; once-daily administration of L-SEDDS (Compound (1) 400 mg)): maintained above IC90 (6.9 mg/mL) from the second day of administration
- trough concentration relative to IC90 ([5]; twice-daily administration of C-SEDDS (Compound (1) 200 mg)): maintained above IC90 (6.9 mg/mL) from the third day of administration
